{
  "source": "ChEMBL document CHEMBL5233245",
  "about": "“Monocarboxylate transporter 1 and 4 inhibitors as potential therapeutics for treating solid tumours: A review with structure-activity relationship insights” (Eur J Med Chem, 2020)",
  "data": [
    {"target": "T1, Monocarboxylate transporter 1 (Rattus norvegicus) (UniProt P53987)", "T1 sequence (whole entry)": "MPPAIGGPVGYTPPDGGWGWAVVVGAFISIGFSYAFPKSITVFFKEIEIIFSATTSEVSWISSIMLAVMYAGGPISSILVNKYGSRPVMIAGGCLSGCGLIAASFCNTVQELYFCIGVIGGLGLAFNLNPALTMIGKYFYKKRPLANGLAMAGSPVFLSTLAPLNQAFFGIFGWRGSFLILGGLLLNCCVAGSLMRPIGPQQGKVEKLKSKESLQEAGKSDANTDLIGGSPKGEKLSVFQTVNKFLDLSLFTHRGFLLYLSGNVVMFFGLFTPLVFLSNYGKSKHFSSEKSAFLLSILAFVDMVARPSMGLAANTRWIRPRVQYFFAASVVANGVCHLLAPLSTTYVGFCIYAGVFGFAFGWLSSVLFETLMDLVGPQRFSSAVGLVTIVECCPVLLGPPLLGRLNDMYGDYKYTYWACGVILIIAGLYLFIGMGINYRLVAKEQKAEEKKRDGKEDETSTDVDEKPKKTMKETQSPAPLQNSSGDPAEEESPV", "assay": "Inhibition of rat MCT1 expressed in human MDA-MB-231 cells in presence of [3H]-GHB by liquid scintillation spectroscopy analysis", "format": "cell-based", "design": "concentration or dose not given beside the values", "details": "concentration not given here", "units": {"inhibition": "%"}, "values": [
      {"smiles": "COc1ccc(-c2cc(=O)c3c(O)cc(O)cc3o2)cc1O", "inhibition": 49},
      {"smiles": "O=c1c(O)c(-c2ccc(O)c(O)c2)oc2cc(O)ccc12", "inhibition": 93},
      {"smiles": "O=c1c(O)c(-c2ccc(O)cc2O)oc2cc(O)cc(O)c12", "inhibition": 100},
      {"smiles": "O=c1cc(-c2ccc(O)c(O)c2)oc2cc(O)cc(O)c12", "inhibition": 100},
      {"smiles": "O=c1cc(-c2ccc(O)cc2)oc2cc(O)cc(O)c12", "inhibition": 50},
      {"smiles": "O=c1c(O)c(-c2ccc(O)c(O)c2)oc2cc(O)cc(O)c12", "inhibition": 87}
    ]}
  ]
}
